Experimental data published in patent publication US10501449B2 (priority 2018, dated 2019).

What follows are molecules tested against hROMK (human Kir1.1) (Homo sapiens (Human), UniProt P48048) (assay: cell-based). Settings: CHO T-Rex hROMK stable cell line; thallium flux; 10-point concentration response curve; read-out: Human ROMK Th Flux IC50.
Sequence of hROMK (human Kir1.1) (P48048 whole entry): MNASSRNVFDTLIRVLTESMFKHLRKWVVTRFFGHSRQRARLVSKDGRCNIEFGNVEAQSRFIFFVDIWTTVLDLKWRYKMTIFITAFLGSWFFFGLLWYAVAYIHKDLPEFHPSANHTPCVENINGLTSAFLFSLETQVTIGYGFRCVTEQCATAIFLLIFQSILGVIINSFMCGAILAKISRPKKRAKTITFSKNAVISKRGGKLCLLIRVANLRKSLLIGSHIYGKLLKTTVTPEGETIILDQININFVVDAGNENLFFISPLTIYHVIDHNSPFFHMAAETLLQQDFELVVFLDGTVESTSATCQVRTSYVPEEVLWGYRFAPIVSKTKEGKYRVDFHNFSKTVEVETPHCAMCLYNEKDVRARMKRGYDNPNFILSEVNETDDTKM

Compound	IC50 [nM]
Cc1c([C@@H]2CN(Cc3cnn(-c4ccn(C(F)F)c(=O)c4)n3)C[C@H](C)N2)ccc2c1COC2=O [Example 270-I, 1-(difluoromethyl)-4-(4-(((3S,5R)-3-methyl-5-(4-methyl-1-oxo-1,3-dihydroisobenzofuran-5-yl)piperazin-1-yl)methyl)-2H-1,2,3-triazol-2-yl)pyridin-2(1H)-one]	580
CNC(=O)c1nn(-c2cc(OC)c(C#N)cn2)cc1CN1CCN[C@H](c2ccc3c(c2C)COC3=O)C1 [Example 260-I, (R)-1-(5-cyano-4-methoxypyridin-2-yl)-N-methyl-4-((3-(4-methyl-1-oxo-1,3-dihydroisobenzofuran-5-yl)piperazin-1-yl)methyl)-1H-pyraozl-3-carboxamide]	430
Cc1c([C@@H]2CN(Cc3cnn(-c4ccc5oc(=O)n(C)c5c4C)c3)CCN2)ccc2c1COC2=O [Example 135-I, (R)-3,4-dimethyl-5-(4-((3-(4-methyl-1-oxo-1,3-dihydroisobenzofuran-5-yl)piperazin-1-yl)methyl)-1H-pyrazol-1-yl)benzo[d]oxazol-2(3H)-one]	170
Cc1cc(-n2cc(CN3C[C@@H](c4ccc5c(c4C)COC5=O)NC3=O)cn2)ncc1C#N [Example 118-I, (R)-4-methyl-6-(4-((4-(4-methyl-1-oxo-1,3-dihydroisobenzofuran-5-yl)-2-oxoimidazolidin-1-yl)methyl)-1H-pyrazol-1-yl)nicotinonitrile]	290
COc1cc(-c2ccc(CN3C[C@@H](c4ccc5c(c4C)COC5=O)OC3=O)cn2)ncc1C#N [Example 17-I, (R)-4-methoxy-5′-((5-(4-methyl-1-oxo-1,3-dihydroisobenzofuran-5-yl)-2-oxooxazolidin-3-yl)methyl)-[2,2′-bipyridine]-5-carbonitrile]	900
Cc1cc(N2CCOC2=O)cc(-n2cc(CN3C[C@@H](c4ccc5c(c4C)COC5=O)N[C@@H](C)C3)cn2)c1 [Example 152-I, 3-(3-methyl-5-(4-(((3S,5R)-3-methyl-5-(4-methyl-1-oxo-1,3-dihydroisobenzofuran-5-yl)piperazin-1-yl)methyl)-1H-pyrazol-1-yl)phenyl)oxazolidin-2-one]	490
Cc1cc(-n2cc(CN3CC(c4ccc5c(c4C)COC5=O)NC(C(C)(C)O)C3)cn2)ncc1C#N (single isomer, unassigned) [Example 213-I, 6-(4-((3-(2-hydroxypropan-2-yl)-5-(4-methyl-1-oxo-1,3-dihydroisobenzofuran-5-yl)piperazin-1-yl)methyl)-1H-pyrazol-1-yl)-4-methynicotinonitrile]	1200
Cc1cc(-n2ncc(CN3C[C@H](C)N(O)[C@H](c4ccc5c(c4C)COC5=O)C3)n2)ncc1C#N [Example 246-I, 6-(4-(((3S,5R)-4-hydroxy-3-methyl-5-(4-methyl-1-oxo-1,3-dihydroisobenzofuran-5-yl)piperazin-1-yl)methyl)-2H-1,2,3-triazol-2-yl)-4-methylnicotinonitrile]	870
Cc1cc(-n2cc(CN3CC(F)C(c4ccc5c(c4C)COC5=O)C3)cn2)ncc1C#N (single isomer, unassigned) [Example 212-II, 6-(4-((3-fluoro-4-(4-methyl-1-oxo-1,3-dihydroisobenzofuran-5-yl)pyrrolidin-1-yl)methyl)-1H-pyrazol-1-yl)-4-methylnicotinonitrile]	97
Cc1cc(-n2nnc(CN3C[C@@H](c4ccc5c(c4C)COC5=O)N[C@@H](C)C3)c2C)ncc1C#N [Example 176-I, 4-methyl-6-(5-methyl-4-(((3S,5R)-3-methyl-5-(4-methyl-1-oxo-1,3-dihydroisobenzofuran-5-yl)piperazin-1-yl)methyl)-1H-1,2,3-triazol-1-yl)nicotinonitrile]	120
Cc1cc(-n2cc(CN3CCO[C@@H](c4ccc5c(c4C)COC5=O)C3)cn2)ncc1C#N [Example 1-II, (S)-4-methyl-6-(4-((2-(4-methyl-1-oxo-1,3-dihydroisobenzofuran-5-yl)morpholino)methyl)-1H-pyrazol-1-yl) nicotinonitrile]	800
Cc1cc(-c2nc(CN3CC[C@@H](O)[C@H](c4ccc5c(c4C)COC5=O)C3)co2)ncc1C#N [Example 132-I, 6-(4-(((3R,4R)-4-hydroxy-3-(4-methyl-1-oxo-1,3-dihydroisobenzofuran-5-yl)piperidin-1-y)methyl)oxazol-2-yl)-4-methylnicotinonitrile]	170
Cc1ccc(-n2cnc(CN3C[C@@H](c4ccc5c(c4C)COC5=O)N[C@@H](C)C3)c2)cc1 [Example 178-I, 4-methyl-5-((2R,6S)-6-methyl-4-((1-(p-tolyl)-1H-imidazol-4-yl)methyl)piperazin-2-yl)isobenzofuran-1(3h)-one]	220
Cc1cnc(-n2cc(CN3C[C@@H](c4ccc5c(c4C)COC5=O)N[C@@H](C)C3)cn2)cn1 [Example 206-I, 4-methyl-5-((2R,6S)-6-methyl-4-((1-(5-methylpyrazin-2-yl)-1H-pyrazol-4-yl)methyl)piperazin-2-yl)isobenzofuran-1(3H)-one]	82
COc1cc(-n2cnc(CN3C[C@@H](c4ccc5c(c4C)COC5=O)OC3=O)c2)ncc1C#N [Example 78-I, (R)-4-methoxy-6-(4-((5-(4-methyl-1-oxo-1,3-dihydroisobenzofuran-5-yl)-2-oxooxazolidin-3-yl)methyl)-1H-imidazol-1-yl)nicotinonitrile]	810
Cc1c([C@@H]2CN(Cc3cnn(-c4ccnc5c4ccn5C)c3)CCO2)ccc2c1COC2=O [Example 177-I, (R)-4-methyl-5-(4-((1-(1-methyl-1H-pyrrolo[2,3-b]pyridin-4-yl)-1H-pyrazol-4-yl)methyl)morpholin-2-yl)isobenzofuran-1(3H)-one]	500
Cc1c([C@@H]2CN(Cc3cnc(-n4cncn4)nc3)CCN2)ccc2c1COC2=O [Example 234-I, (R)-5-(4-((2-(1H-1,2,4-triazol-1-yl)pyrimidin-5-yl)methyl)piperazin-2-yl)-4-methylisobenzofuran-1(3H)-one]	78
Cc1cc(-n2cnc(CN3C[C@@H](c4ccc5c(c4C)COC5=O)N[C@@H](C)C3)c2)cc(C)n1 [Example 181-I, 5-((2R,6S)-4-((1-(2,6-dimethylpyridin-4-yl)-1H-imidazol-4-yl)methyl)-6-methylpiperazin-2-yl)-4-methylisobenzofuran-1(3H)-one]	150
CC(=O)N1CCN(Cc2cnn(-c3cc(C)c(C#N)cn3)c2)C[C@H]1c1ccc2c(c1C)COC2=O [Example 68-I, (R)-6-(4-((4-acetyl-3-(4-methyl-1-oxo-1,3-di-hydroisobenzofuran-5-yl)piperazin-1-yl)methyl)-1H-pyrazol-1-yl)-4-methylnicotinonitrile]	1700
Cc1cc(-n2cc(CN3CCN(S(C)(=O)=O)[C@H](c4ccc5c(c4C)COC5=O)C3)cn2)ncc1C#N [Example 69-I, (R)-4-methyl-6-(4-((3-(4-methyl-1-oxo-1,3-dihydroisobenzofuran-5-yl)-4-(methylsulfonyl)piperazin-1-yl)methyl)-1H-pyrazol-1-yl) nicotinonitrile]	900
Cc1c([C@@H]2CN(Cc3cnn(-c4ccc5oc(=O)n(C)c5c4)c3)CC(=O)N2)ccc2c1COC2=O [Example 71-I, (R)-3-methyl-5-(4-((3-(4-methyl-1-oxo-1,3-dihydroisobenzofuran-5-yl)-5-oxopiperazin-1-yl)methyl)-1H-pyrazol-1-yl)benzo[d]oxazol-2(3H)-one]	800
Cc1c([C@@H]2CN(Cc3cnn(-c4cccc(C#N)c4)c3)CCO2)ccc2c1COC2=O [Example 43-I, (R)-3-(4-((2-(4-methyl-1-oxo-1,3-dihydroiso-benzofuran-5-yl)morpho-lino)methyl)-1H-pyrazol-1-yl)benzonitrile]	110
COc1ncc(-n2cc(CN3C[C@@H](c4ccc5c(c4C)COC5=O)N[C@@H](C)C3)cn2)cn1 [Example 208-I, 5-((2R,6S)-4-((1-(2-methoxypyrimidin-5-yl)-1H-pyrazol-4-yl)methyl)-6-methylpiperazin-2-yl)-4-methylisobenzofuran-1(3H)-one]	190
Cc1cc(-n2cc(C(O)CN3CCO[C@H](c4ccc5c(c4C)COC5=O)C3)cn2)ncc1C#N (single isomer, unassigned) [Example 18-I]	870
Cc1cc(-n2ccc(CN3C[C@@H](c4ccc5c(c4C)COC5=O)N[C@@H](C)C3)cc2=O)ncc1C#N [Example 247-I, 4′-methyl-4-(((3S,5R)-3-methyl-5-(4-methyl-1-oxo-1,3-dihydroisobenzofuran-5-yl)piperazin-1-yl)methyl)-2-oxo-2H-[1,2′-bipyridine]-5′-carbonitrile]	330
Cc1c([C@@H]2CN(Cc3ccc(-c4ccc(=O)n(C)c4)nc3)C[C@H](C)N2)ccc2c1COC2=O [Example 238-I, 1′-methyl-5-(((3S,5R)-3-methyl-5-(4-methyl-1-oxo-1,3-dihydroisobenzofuran-5-yl)piperazin-1-yl)methyl)-[2,3′-bipyridin]-6′(1′H)-one]	470
Cc1cc(N2CC(CN3CCN[C@H](c4ccc5c(c4C)COC5=O)C3)OC2=O)ncc1C#N (single isomer, unassigned) [Example 160-I]	130
Cc1c([C@@H]2CN(Cc3cnn(-c4ccc(S(C)(=O)=O)cc4)c3)CCO2)ccc2c1COC2=O [Example 45-I, (R)-4-methyl-5-(4-((1-(4-(methylsulfonyl)phenyl)-1H-pyrazol-4-yl)methyl)morpholin-2-yl)isobenzofuran-1(3H)-one]	370
Cc1cc(-n2cc(CN3CCC(=O)C(c4ccc5c(c4C)COC5=O)C3)cn2)ncc1C#N (stereo not drawn) [Example 232-I, 4-methyl-6-(4-((3-(4-methyl-1-oxo-1,3-dihydroisobenzofuran-5-yl)-4-oxopiperidin-1-yl)methyl)-1H-pyrazol-1-yl)nicotinonitrile]	480
Cc1c([C@@H]2CN(Cc3cnn(-c4ccc(S(C)(=O)=O)cn4)c3)C[C@H](C)N2)ccc2c1COC2=O [Example 161-I, 4-methyl-5-((2R,6S)-6-methyl-4-((1-(5-(methylsulfonyl)pyridin-2-yl)-1H-pyrazol-4-yl)methyl)piperazin-2-yl)isobenzofuran-1(3H)-one]	170
